# In patent US6713266B1 (Isodiagnostika Inc., priority 1998, dated 2004):
# Experiments:
# Assay in all cases: Inhibition ELISA to the CSA-DVS-HSA conjugate, MoAb
# Type in all cases: binding, mouse
# MoAb CSA-1H6 = conditions: CSA-1H6; Table 24, CSA, CSG and CSA derivative inhibitors
# Protocol: (§1) Inhibition ELISA Protocol:
# (§2) 1. Use Falcon Pro-bind immunoplates.
# (§3) 2. Dilute coating antigen to 1 μg/mL in carbonate-bicarbonate buffer. Add 100 μL per well and incubate overnight at 4° C.
# (§4) 3. On the same day prepare inhibiting antigen tubes. Aliquot antibodies into glass test tubes. Prepare appropriate antigen concentration in ethanol and add to aliquoted antibody at 10 μL ethanol solution/250 μL antibody. Vortex tubes and incubate overnight at 4° C.
# (§5) 4. Shake out wells and wash 3× with 200 μL PBS/0.05% TWEEN™ (polyoxyethylene-sorbitol) (v/v) per well.
# (§6) 5. Add 200 μL blocking buffer per well (PBS/2% BSA (w/v)). Incubate 60 min at room temperature.
# (§7) 7. Transfer contents of inhibition tubes to antigen-coated plate, 100 μL per well. Incubate 60 min at 37° C.
# (§8) 9. Dilute alkaline phosphatase conjugated anti-mouse IgG (Pierce cat#31322) in PBS/0.1% TWEEN™ (polyoxyethylene-sorbitol) (v/v) to 1:5000 concentration. Add 100 μL per well and incubate at 37° C. for 60 min.
# (§9) 11. […] Add 100 μL per well and incubate in the dark at room temperature. Absorbance can be read at 405 nm at approximately 15-min intervals.
# MoAb CSA-2G9 = conditions: CSA-2G9; Table 24, CSA, CSG and CSA derivative inhibitors
# Protocol: as §1, §2, §3, §4, §5, §6, §7, §8, §9
# MoAb AM1-2E10 = conditions: AM1-2E10; Table 24, CSA, CSG and CSA derivative inhibitors
# Protocol: as §1, §2, §3, §4, §5, §6, §7
# (§10) 9. […] Add 100 μL per well and incubate at 37° C. for 60 min.
# as §9
# MoAb AM1-7F5 = conditions: AM1-7F5; Table 24, CSA, CSG and CSA derivative inhibitors
# Protocol: as §1, §2, §3, §4, §5, §6, §7, §10, §9
compound,measurement,setting,value
C=CCC1C=C(C)CC(C)CC(OC)C2OC(O)(C(=O)C(=O)N3CCCCC3C(=O)OC(C(C)=CC3CCC(O)C(OC)C3)C(C)C(O)CC1=NO)C(C)CC2OC (stereo not shown) [III],Percent Inhibition,MoAb CSA-1H6,5.5%
same,Percent Inhibition,MoAb CSA-2G9,21.9%
same,Percent Inhibition,MoAb AM1-2E10,17.8%
same,Percent Inhibition,MoAb AM1-7F5,16.6%
